Laboratory results as given in patent US20160106102A1, “KNOWN AND NEW HETEROCYCLIC COMPOUNDS AS PEST CONTROL AGENTS” (BAYER CROPSCIENCE AKTIENGESELLSCHAFT, priority 2013, published 2016).

Columns and labels:
Myzus persicae [1] = assay: Myzus persicae - spray test; type: in vivo; conditions: application rate of 500 g/ha; after 6 days; sprayed Chinese cabbage leaf discs infested by all stages; 100% = all aphids killed
In short: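 Chinese cabbage leaf discs infested with all stages of green peach aphid sprayed with compound in acetone/DMF formulation with alkylaryl polyglycol ether emulsifier, diluted in emulsifier-containing water. Efficacy (% aphids killed) assessed after 6 days.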

Myzus persicae [2] = assay: Myzus persicae - sachet test; type: in vivo; conditions: 100% = all animals killed
In short: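 Active ingredient dissolved with 2% N-methylpyrrolidone and 2% diacetone alcohol, diluted in water, then pipetted into nutrient medium. Plate sealed and paired with a plate carrying green peach aphids. Kill in % scored after the set time (100% = all dead, 0% = none dead).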

Phaedon cochleariae = Phaedon cochleariae - spray test (PHAECO); type: in vivo; conditions: application rate of 500 g/ha; after 7 days; larvae of the mustard beetle on sprayed Chinese cabbage leaf discs; 100% = all larvae killed
Method: Phaedon cochleariae—Spray Test (PHAECO)
(§1) Solvent: 78.0 parts by weight of acetone • • 1.5 parts by weight of dimethylformamide
(§2) Emulsifier: alkylaryl polyglycol ether
(§3) To produce an appropriate active ingredient formulation, 1 part by weight of active ingredient is dissolved using the specified parts by weight of solvent and made up with water containing an emulsifier concentration of 1000 ppm until the desired concentration is attained. To produce further test concentrations, the preparation is diluted with emulsifier-containing water.
Discs of Chinese cabbage leaves (Brassica pekinensis) are sprayed with an active ingredient formulation of the desired concentration and, after drying, populated with larvae of the mustard beetle (Phaedon cochleariae).
After 7 days, the efficacy in % is determined. 100% means that all the beetle larvae have been killed; 0% means that no beetle larvae have been killed.

[3] = log P determination by LC-MS in the acidic range; type: physicochemical; conditions: LC-MS in the acidic range
Description: The LC-MS determination in the acidic range is effected at pH 2.7 using 0.1% aqueous formic acid and acetonitrile (contains 0.1% formic acid) as eluents, linear gradient from 10% acetonitrile to 95% acetonitrile. Alternatively, the determination is effected in the acidic range at pH 2.3 using 0.1% aqueous phosphoric acid and acetonitrile as eluents; linear gradient from 10% acetonitrile to 95% acetonitrile.

Tetranychus urticae = Tetranychus urticae - spray test, OP-resistant (TETRUR); type: in vivo; conditions: application rate of 500 g/ha; after 6 days; bean leaf discs infested by all stages; 100% = all spider mites killed
Method: Tetranychus urticae—spray test, OP-resistant (TETRUR)
as §1, §2, §3
Discs of bean leaves (Phaseolus vulgaris) infested by all stages of the greenhouse red spider mite (Tetranychus urticae) are sprayed with an active ingredient formulation of the desired concentration.
After 6 days, the efficacy in % is determined. 100% means that all the spider mites have been killed; 0% means that no spider mites have been killed.

Spodoptera frugiperda = Spodoptera frugiperda - spray test (SPODFR); type: in vivo; conditions: application rate of 500 g/ha; after 7 days; armyworm caterpillars on sprayed maize leaf discs; 100% = all caterpillars killed
Method: Spodoptera frugiperda—Spray Test (SPODFR)
as §1, §2, §3
Leaf discs of maize (Zea mays) are sprayed with an active ingredient formulation of the desired concentration and, after drying, populated with caterpillars of the armyworm (Spodopterafrugiperda).
After 7 days, the efficacy in % is determined. 100% means that all the caterpillars have been killed; 0% means that no caterpillars have been killed.

[4] = application rate of 6 ppm in nutrient medium
[5] = application rate of 30 ppm in nutrient medium

Structure (SMILES) | log P (acid) [3] | efficacy in % (Myzus persicae [1]) [%] | efficacy (kill in %) (Myzus persicae [2]; [4]) [%] | efficacy (kill in %) (Myzus persicae [2]; [5]) [%] | efficacy in % (Phaedon cochleariae) [%] | efficacy in % (Tetranychus urticae) [%] | efficacy in % (Spodoptera frugiperda) [%]
Cc1cc(N(C(=O)c2cccnc2)C(=O)c2cccc(Cl)c2)nn1C(=O)c1cccc(Cl)c1 [Compound I-1-22] | 3.98 | 100 | 100 | 100 | 83 | – | 83
O=C(Nc1ccn(-c2ncccc2Cl)n1)c1cccnc1 [Compound I-1-48] | 1.25 | – | – | 100 | 100 | – | 100
CCCC(=O)n1nc(NC(=O)c2cccnc2)cc1C [Compound I-1-131] | 1.94 | 90 | 100 | 100 | 100 | 90 | 100
CCOCn1nc(NC(=O)c2cccnc2)cc1C [Compound I-1-2] | 1.1 | 100 | 100 | 100 | – | – | –
Cc1cc(NC(=O)c2cccnc2)nn1Cc1nn(C)c(=O)n1C [Compound I-1-153] | 0.62 | 100 | 100 | 100 | – | – | –
CCSCCn1nc(NC(=O)c2cccnc2)cc1C [Compound I-1-189] | 1.53 | 90 | 100 | 100 | – | – | –
Cc1ccnc(Cn2nc(NC(=O)c3cccnc3)cc2C)n1 [Compound I-1-31] | 0.96 | 90 | 100 | 100 | – | – | –
Cc1cc(NC(=O)c2cccnc2)nn1CC1CC1 [Compound I-1-174] | 1.31 | 100 | 100 | 100 | – | – | –
Cc1cc(NC(=O)c2cccnc2)nn1C(=O)C(C)C [Compound I-1-130] | 1.95 | 90 | 100 | 100 | 100 | – | 100
COCn1nc(NC(=O)c2cccnc2)cc1C [Compound I-1-175] | 0.71 | 100 | 100 | 100 | – | – | –
Cc1cc(NC(=O)c2cccnc2)nn1-c1ncccc1Cl [Compound I-1-34] | 1.35 | 100 | 100 | 100 | – | – | –

Further lines, with some results ahead:

log P (acid) [3] | Structure (SMILES) | efficacy in % (Myzus persicae [1]) [%] | efficacy (kill in %) (Myzus persicae [2]; [4]) [%] | efficacy (kill in %) (Myzus persicae [2]; [5]) [%] | efficacy in % (Phaedon cochleariae) [%] | efficacy in % (Tetranychus urticae) [%] | efficacy in % (Spodoptera frugiperda) [%]
0.63 | Cc1cc(N(C)C(=O)c2cccnc2)nn1Cc1ncccn1 [Compound I-1-346] | 100 | 100 | 100 | 100 | – | –
1.59 | CCC(C)n1nc(NC(=O)c2cccnc2)cc1C (stereo not shown) [Compound I-1-205] | 100 | – | 100 | – | 90 | –
0.9 | Cc1nc(Cn2nc(NC(=O)c3cccnc3)cc2C)no1 [Compound I-1-282] | 90 | 100 | 100 | – | 90 | –
1.92 | CCC(CC)n1nc(NC(=O)c2cccnc2)cc1C [Compound I-1-210] | – | – | 80 | – | 90 | –
1.74 | Cc1cc(NC(=O)c2cccnc2)nn1C1CCCC1 [Compound I-1-229] | 90 | 100 | 100 | – | – | –
0.88 | Cc1cc(NC(=O)c2cccnc2)nn1C(=O)NCc1ccccn1 [Compound I-1-329] | 90 | 100 | 100 | – | – | –
1.16 | O=C(Nc1nn(Cc2ncccn2)c2ccccc12)c1cccnc1 [Compound I-1-215] | 90 | 100 | 100 | – | – | –
0.94 | Cc1c(Cl)c(NC(=O)c2cccnc2)nn1Cc1ncccn1 [Compound I-1-212] | 90 | 100 | 100 | – | – | –
1.82 | Cc1cc(NC(=O)c2cccnc2)nn1Cc1nc2ccc(Cl)cc2o1 [Compound I-1-342] | 90 | 100 | 100 | – | – | –
